Bridge positions count the residues as written; N and C are the ends. Square brackets hold non-standard residues; d marks the D form. Peptide text beside a SMILES is read from it. * marks the point of attachment. ξ: configuration not given here. Phe(4-CONH2) = NC(=O)c1ccc(C[C@H](N)C(=O)O)cc1; Bip = N[C@@H](Cc1ccc(-c2ccccc2)cc1)C(=O)O; Phe(3-Me) = Cc1cccc(C[C@H](N)C(=O)O)c1; Cyclopropanecarbonyl = O=C(C1CC1)*; Val(3-OH) = CC(C)(O)[C@H](N)C(=O)O; Cha = N[C@@H](CC1CCCCC1)C(=O)O; Thr(3ξ) = CC(O)[C@H](N)C(=O)O; 12Ado = NCCCCCCCCCCCC(=O)O; Carboxymethyl = O=C(O)C*; Orn = NCCC[C@H](N)C(=O)O; Aun = NCCCCCCCCCCC(=O)O; Dab = NCC[C@H](N)C(=O)O; Dap = NC[C@H](N)C(=O)O; AEEA = NCCOCCOCC(=O)O; Piv = CC(C)(C)C(=O)*
Target: T1, PD-1/PD-L1 interaction (PE-labeled human PD-L1-Ig binding to Jurkat cell line over-expressing human PD-1) (Homo sapiens, UniProt Q15116)
T1 construct: expressed in transfected cells; host or cells: Jurkat
Assay: Jurkat-PD-1 Cell Binding High-Content Screening Assay (CBA)
Format: cell-based
Settings: Jurkat cell line over-expressing human PD-1; PE-labeled PD-L1-Ig 20 nM final; read-out: Jurkat hPD1-PDL1 IC50
Summary of the method: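 Binding of fluorescent PD-L1-Ig (20 nM final) to Jurkat-PD-1 cells was measured by automated imaging after 1 h, following a 2 h compound pre-treatment at 37° C.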

T1 sequence (Q15116 25-288): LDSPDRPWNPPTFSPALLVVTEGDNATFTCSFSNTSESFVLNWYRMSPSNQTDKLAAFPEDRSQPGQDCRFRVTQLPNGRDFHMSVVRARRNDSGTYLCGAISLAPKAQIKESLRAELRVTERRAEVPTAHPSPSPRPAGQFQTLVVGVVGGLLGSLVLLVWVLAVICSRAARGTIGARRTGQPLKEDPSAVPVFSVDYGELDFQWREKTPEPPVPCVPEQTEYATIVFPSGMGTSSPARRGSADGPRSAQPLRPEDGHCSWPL

SMILES | IC50 [µM]
Cc1cccc(C[C@@H]2NC(=O)[C@H](CC(=O)O)NC(=O)[C@H](Cc3ccc(OCC(=O)O)cc3)NC(=O)[C@H](CCN)NC(=O)CSC[C@@H](C(=O)N[C@@H](CCCCN)C(=O)N[C@@H](CN)C(=O)NCCCCCCCCCCC(=O)O)NC(=O)[C@H](CCCCN)NC(=O)[C@H](C(C)C)NC(=O)[C@H](CC3CCCCC3)NC(=O)[C@H](CCN)NC(=O)[C@@H](CC(C)C)NC(=O)[C@H](CCCN)NC(=O)[C@H](Cc3ccc(O)cc3)NC(=O)[C@H](Cc3ccc(-c4ccccc4)cc3)NC(=O)[C@H](CCCCNC(=O)C(C)(C)C)NC2=O)c1 [Compound 3613] ({CH2CO}-[Dab]Y(Carboxymethyl)D[Phe(3-Me)]K(Piv)[Bip]Y[Orn][dL][Dab][Cha]VKCK[Dap][Aun]-OH; thioether N-14) | 0.0241
Cc1cccc(C[C@@H]2NC(=O)[C@H](CC(=O)O)NC(=O)[C@H](Cc3ccc(OCC(=O)O)cc3)NC(=O)[C@H](CCN)NC(=O)CSC[C@@H](C(=O)N[C@@H](CCCN)C(=O)N[C@@H](CO)C(=O)NCCCCCCCCCCCC(=O)O)NC(=O)[C@H](CO)NC(=O)[C@H](C(C)(C)O)NC(=O)[C@H](CC3CCCCC3)NC(=O)[C@H](CCN)NC(=O)[C@@H](CC(C)C)NC(=O)[C@H](CCCN)NC(=O)[C@H](Cc3ccc(OCC(=O)O)cc3)NC(=O)[C@H](Cc3ccc(-c4ccccc4)cc3)NC(=O)[C@H](Cc3ccc(OCC(=O)O)cc3)NC2=O)c1 [Compound 3617] ({CH2CO}-[Dab]Y(Carboxymethyl)D[Phe(3-Me)]Y(Carboxymethyl)[Bip]Y(Carboxymethyl)[Orn][dL][Dab][Cha][Val(3-OH)]SC[Orn]S[12Ado]-OH; thioether N-14) | 0.0788
Cc1cccc(C[C@@H]2NC(=O)[C@H](CC(=O)O)NC(=O)[C@H](Cc3ccc(OCC(=O)O)cc3)NC(=O)[C@H](Cc3ccc(C(N)=O)cc3)NC(=O)CSC[C@@H](C(=O)N[C@@H](CCCN)C(=O)N[C@@H](CO)C(=O)NCCCCCCCCCCCC(=O)O)NC(=O)[C@H](CO)NC(=O)[C@H](C(C)(C)O)NC(=O)[C@H](CC3CCCCC3)NC(=O)[C@H](CCN)NC(=O)[C@@H](CC(C)C)NC(=O)[C@H](CCCN)NC(=O)[C@H](Cc3ccc(OCC(=O)O)cc3)NC(=O)[C@H](Cc3ccc(-c4ccccc4)cc3)NC(=O)[C@H](Cc3ccc(OCC(=O)O)cc3)NC2=O)c1 [Compound 3618] ({CH2CO}-[Phe(4-CONH2)]Y(Carboxymethyl)D[Phe(3-Me)]Y(Carboxymethyl)[Bip]Y(Carboxymethyl)[Orn][dL][Dab][Cha][Val(3-OH)]SC[Orn]S[12Ado]-OH; thioether N-14) | 0.0218
CC(=O)NCCCC[C@@H]1NC(=O)[C@H](Cc2ccc(-c3ccccc3)cc2)NC(=O)[C@H](Cc2ccc(O)cc2)NC(=O)[C@H](Cc2cccc(C)c2)NC(=O)[C@H](CC(=O)O)NC(=O)[C@H](Cc2ccc(OCC(=O)O)cc2)NC(=O)[C@H](CCN)NC(=O)CSC[C@@H](C(=O)N[C@@H](CCN)C(=O)N[C@@H](CO)C(=O)NCCCCCCCCCCCC(=O)O)NC(=O)[C@H](CCCN)NC(=O)[C@H](C(C)(C)O)NC(=O)[C@H](CC2CCCCC2)NC(=O)[C@H](CCN)NC(=O)[C@@H](CC(C)C)NC(=O)[C@H](CCCN)NC1=O [Compound 3620] ({CH2CO}-[Dab]Y(Carboxymethyl)D[Phe(3-Me)]Y[Bip]K(Ac)[Orn][dL][Dab][Cha][Val(3-OH)][Orn]C[Dab]S[12Ado]-OH; thioether N-14) | 0.0372
CC(=O)NCCCC[C@@H]1NC(=O)[C@H](Cc2ccc(-c3ccccc3)cc2)NC(=O)[C@H](Cc2ccc(O)cc2)NC(=O)[C@H](Cc2cccc(C)c2)NC(=O)[C@H](CC(=O)O)NC(=O)[C@H](Cc2ccc(OCC(=O)O)cc2)NC(=O)[C@H](CCN)NC(=O)CSC[C@@H](C(=O)N[C@@H](CCN)C(=O)N[C@@H](CO)C(=O)NCCCCCCCCCCCC(=O)O)NC(=O)[C@H](CCC(=O)O)NC(=O)[C@H](C(C)(C)O)NC(=O)[C@H](CC2CCCCC2)NC(=O)[C@H](CCN)NC(=O)[C@@H](CC(C)C)NC(=O)[C@H](CCCN)NC1=O [Compound 3621] ({CH2CO}-[Dab]Y(Carboxymethyl)D[Phe(3-Me)]Y[Bip]K(Ac)[Orn][dL][Dab][Cha][Val(3-OH)]EC[Dab]S[12Ado]-OH; thioether N-14) | 0.0243
CC(=O)NCCCC[C@@H]1NC(=O)[C@H](Cc2ccc(-c3ccccc3)cc2)NC(=O)[C@H](Cc2ccc(O)cc2)NC(=O)[C@H](Cc2cccc(C)c2)NC(=O)[C@H](CC(=O)O)NC(=O)[C@H](Cc2ccc(OCC(=O)O)cc2)NC(=O)[C@H](C(C)O)NC(=O)CSC[C@@H](C(=O)N[C@@H](CCN)C(=O)N[C@@H](CO)C(=O)NCCCCCCCCCCCC(=O)O)NC(=O)[C@H](CCCN)NC(=O)[C@H](C(C)(C)O)NC(=O)[C@H](CC2CCCCC2)NC(=O)[C@H](CCN)NC(=O)[C@@H](CC(C)C)NC(=O)[C@H](CCCN)NC1=O (stereo partly drawn) [Compound 3622] ({CH2CO}-[Thr(3ξ)]Y(Carboxymethyl)D[Phe(3-Me)]Y[Bip]K(Ac)[Orn][dL][Dab][Cha][Val(3-OH)][Orn]C[Dab]S[12Ado]-OH; thioether N-14) | 0.0183
CC(=O)NCCCC[C@@H]1NC(=O)[C@H](Cc2ccc(-c3ccccc3)cc2)NC(=O)[C@H](Cc2ccc(O)cc2)NC(=O)[C@H](Cc2cccc(C)c2)NC(=O)[C@H](CC(=O)O)NC(=O)[C@H](Cc2ccc(OCC(=O)O)cc2)NC(=O)[C@H](CCN)NC(=O)CSC[C@@H](C(=O)N[C@@H](CCN)C(=O)N[C@@H](CO)C(=O)NCCCCCCCCCCCC(=O)O)NC(=O)[C@H](CCCN)NC(=O)[C@H](C(C)O)NC(=O)[C@H](CC2CCCCC2)NC(=O)[C@H](CCN)NC(=O)[C@@H](CC(C)C)NC(=O)[C@H](CCCN)NC1=O (stereo partly drawn) [Compound 3623] ({CH2CO}-[Dab]Y(Carboxymethyl)D[Phe(3-Me)]Y[Bip]K(Ac)[Orn][dL][Dab][Cha][Thr(3ξ)][Orn]C[Dab]S[12Ado]-OH; thioether N-14) | 0.0623

Continued by falling IC50, values first:

IC50 [µM] | SMILES
0.0183 | Cc1cccc(C[C@@H]2NC(=O)[C@H](CC(=O)O)NC(=O)[C@H](Cc3ccc(OCC(=O)O)cc3)NC(=O)[C@H](CCN)NC(=O)CSC[C@@H](C(=O)N[C@H](CC(N)=O)C(=O)NCCOCCOCC(=O)NCCCCCCCCCCC(=O)O)NC(=O)[C@H](CCCN)NC(=O)[C@H](C(C)C)NC(=O)[C@H](CC3CCCCC3)NC(=O)[C@H](CCN)NC(=O)[C@@H](CC(C)C)NC(=O)[C@H](CCCN)NC(=O)[C@H](Cc3ccc(O)cc3)NC(=O)[C@H](Cc3ccc(-c4ccccc4)cc3)NC(=O)[C@H](C(C)C)NC2=O)c1 [Compound 3616] ({CH2CO}-[Dab]Y(Carboxymethyl)D[Phe(3-Me)]V[Bip]Y[Orn][dL][Dab][Cha]V[Orn]C[dN][AEEA][Aun]-OH; thioether N-14)
0.0136 | Cc1cccc(C[C@@H]2NC(=O)[C@H](CC(=O)O)NC(=O)[C@H](Cc3ccc(OCC(=O)O)cc3)NC(=O)[C@H](CCN)NC(=O)CSC[C@@H](C(=O)N[C@@H](CCCN)C(=O)N[C@@H](CN)C(=O)NCCCCCCCCCCC(=O)O)NC(=O)[C@H](CCCN)NC(=O)[C@H](C(C)C)NC(=O)[C@H](CC3CCCCC3)NC(=O)[C@H](CCN)NC(=O)[C@@H](CC(C)C)NC(=O)[C@H](CCCN)NC(=O)[C@H](Cc3ccc(O)cc3)NC(=O)[C@H](Cc3ccc(-c4ccccc4)cc3)NC(=O)[C@H](CCCCNC(=O)C(C)(C)C)NC2=O)c1 [Compound 3612] ({CH2CO}-[Dab]Y(Carboxymethyl)D[Phe(3-Me)]K(Piv)[Bip]Y[Orn][dL][Dab][Cha]V[Orn]C[Orn][Dap][Aun]-OH; thioether N-14)
0.0134 | CC(=O)NCCCC[C@@H]1NC(=O)[C@H](Cc2ccc(-c3ccccc3)cc2)NC(=O)[C@H](Cc2ccc(O)cc2)NC(=O)[C@H](Cc2cccc(C)c2)NC(=O)[C@H](CC(=O)O)NC(=O)[C@H](Cc2ccc(OCC(=O)O)cc2)NC(=O)[C@H](CN)NC(=O)CSC[C@@H](C(=O)N[C@@H](CCN)C(=O)N[C@@H](CO)C(=O)NCCCCCCCCCCCC(=O)O)NC(=O)[C@H](CCCN)NC(=O)[C@H](C(C)C)NC(=O)[C@H](CC2CCCCC2)NC(=O)[C@H](CCN)NC(=O)[C@@H](CC(C)C)NC(=O)[C@H](CCCN)NC1=O [Compound 3619] ({CH2CO}-[Dap]Y(Carboxymethyl)D[Phe(3-Me)]Y[Bip]K(Ac)[Orn][dL][Dab][Cha]V[Orn]C[Dab]S[12Ado]-OH; thioether N-14)
0.0101 | Cc1cccc(C[C@@H]2NC(=O)[C@H](CC(=O)O)NC(=O)[C@H](Cc3ccc(OCC(=O)O)cc3)NC(=O)[C@H](CCN)NC(=O)CSC[C@@H](C(=O)N[C@@H](CCN)C(=O)NCCOCCOCC(=O)NCCCCCCCCCCC(=O)O)NC(=O)[C@H](CCCN)NC(=O)[C@H](C(C)C)NC(=O)[C@H](CC3CCCCC3)NC(=O)[C@H](CCN)NC(=O)[C@@H](CC(C)C)NC(=O)[C@H](CCCN)NC(=O)[C@H](Cc3ccc(O)cc3)NC(=O)[C@H](Cc3ccc(-c4ccccc4)cc3)NC(=O)[C@H](CCCCNC(=O)C(C)(C)C)NC2=O)c1 [Compound 3610] ({CH2CO}-[Dab]Y(Carboxymethyl)D[Phe(3-Me)]K(Piv)[Bip]Y[Orn][dL][Dab][Cha]V[Orn]C[Dab][AEEA][Aun]-OH; thioether N-14)
0.0097 | Cc1cccc(C[C@@H]2NC(=O)[C@H](CC(=O)O)NC(=O)[C@H](Cc3ccc(OCC(=O)O)cc3)NC(=O)[C@H](CCCNC(=O)C3CC3)NC(=O)CSC[C@@H](C(=O)N[C@@H](CCCN)C(=O)N[C@@H](CO)C(=O)NCCCCCCCCCCCC(=O)O)NC(=O)[C@H](CO)NC(=O)[C@H](CCCCN)NC(=O)[C@H](CC3CCCCC3)NC(=O)[C@H](CCN)NC(=O)[C@@H](CC(C)C)NC(=O)[C@H](CCCN)NC(=O)[C@H](Cc3ccc(OCC(=O)O)cc3)NC(=O)[C@H](Cc3ccc(-c4ccccc4)cc3)NC(=O)[C@H](Cc3ccc(OCC(=O)O)cc3)NC2=O)c1 [Compound 3614] ({CH2CO}-[Orn](Cyclopropanecarbonyl)Y(Carboxymethyl)D[Phe(3-Me)]Y(Carboxymethyl)[Bip]Y(Carboxymethyl)[Orn][dL][Dab][Cha]KSC[Orn]S[12Ado]-OH; thioether N-14)

Source: patent US20260022142A1, “MACROCYCLIC IMMUNOMODULATORS” (Bristol-Myers Squibb Company, priority 2022, published 2026)
